Drawing on US8906911B2, “Chemokine receptor antagonists” (AbbVie Inc., priority 2012, dated 2014), this text covers IC50 and Kb for 17 molecules.

One assay addresses human CCR2B (Homo sapiens (Human), UniProt P41597). In words: Inhibition of native agonist (human MCP-1)-induced intracellular calcium release, calcium flux assay in CHO cells expressing human CCR2B and Gα16. The assay is classed as cell-based. The note with it: for IC50: read-out: hCCR2B IC50; for Kb: read-out: hCCR2B Kb. From the text:
(§1) CHO cells expressing human CCR2B were generated as follows. cDNA for human CCR2B (cloned from human blood) was cloned into plasmid pcDNA3.1 (from Invitrogen). The resulting plasmids were separately transfected into CHO cells expressing human Gα16 (from Molecular Devices). […] CHO cells expressing rat CCR2 were generated as follows. cDNA for rat CCR2 (cloned from rat macrophage) was cloned into plasmid pEF-flag (from Chinese Academy of Science). The resulting plasmids were transfected into CHO cells expressing human Gα16 (from […]).
(§2) Inhibition of Native Agonist-Induced Intracellular Calcium Release in Cells Expressing hCCR2B or rCCR2
(§3) Calcium flux assays were performed in CHO cells expressing human CCR2B and Gα16 coupling protein, or rat CCR2 and Gα16 coupling protein. All compounds were dissolved in DMSO and assays run at a final DMSO concentration of 0.25% (v/v). Human MCP-1 was purchased from PeproTech and used at a final assay concentration of 2 nM, while rat MCP-1 was purchased from R&D and used at a final assay concentration of 4 nM. Assays with cells expressing human CCR2B were performed with human MCP-1, while assays with cells expressing rat CCR2 were performed with rat MCP-1.
(§4) Briefly, cells were cultured overnight in a microtiter plate at 8000 per well. The next day, the resultant adherent cells were incubated in assay buffer (20 mM HEPES, pH 7.4, 0.1% bovine serum albumin, and 2.5 mM probenocid in Hank's Buffered Saline Solution) containing Calcium 4 dye (Molecular Probes) at 37° C. for 60 minutes. Calcium flux assays were performed on a FLIPR^Tetra instrument (Molecular Devices) by adding compound to the cells followed by addition of native agonist and measuring the change in fluorescence as a function of time. Maximal and minimal values for fluorescence were determined using native agonist (2 nM MCP-1) for human or rat CCR2, or buffer addition, respectively. Fluorescence values were used to calculate the percent inhibition at a given compound concentration and the data fit to a sigmoidal curve in a semi-log plot to determine IC50 values. The Kb value is calculated as Kb=IC50/(1+[agonist]/EC50), where [agonist] is the concentration of agonist used and EC50 is the agonist potency determined in the previous experiments. Mean Kb values and IC50 of the compounds assayed are reported in Table 2 and Table 3 respectively.
A general note: A change in cytosolic calcium serves as a functional read-out for many receptors and channels.

In a further assay the target is rat CCR2 (Rattus norvegicus (Rat), UniProt O55193). In words: Inhibition of native agonist (rat MCP-1)-induced intracellular calcium release, calcium flux assay in CHO cells expressing rat CCR2 and Gα16. The assay is classed as cell-based. The note with it: read-out: rCCR2 Kb.
Description: as §1, §2, §3, §4

Broadly, the IC50 is the point on the concentration scale where inhibition reaches its midpoint.

Where two headings read alike, the source gives them in different places.

Sequence of rat CCR2 (O55193 whole entry): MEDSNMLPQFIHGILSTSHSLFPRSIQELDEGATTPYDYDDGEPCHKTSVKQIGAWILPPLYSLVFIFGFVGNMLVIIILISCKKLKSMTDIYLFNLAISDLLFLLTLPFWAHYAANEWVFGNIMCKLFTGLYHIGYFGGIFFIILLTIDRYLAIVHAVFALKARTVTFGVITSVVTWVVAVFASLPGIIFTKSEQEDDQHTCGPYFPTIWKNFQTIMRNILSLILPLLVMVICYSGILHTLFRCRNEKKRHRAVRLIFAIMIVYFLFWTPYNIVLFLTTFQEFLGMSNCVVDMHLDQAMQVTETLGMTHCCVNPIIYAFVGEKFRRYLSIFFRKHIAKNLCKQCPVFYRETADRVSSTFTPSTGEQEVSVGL
Sequence of human CCR2B (P41597 other isoform, or with tags, fused parts or gaps): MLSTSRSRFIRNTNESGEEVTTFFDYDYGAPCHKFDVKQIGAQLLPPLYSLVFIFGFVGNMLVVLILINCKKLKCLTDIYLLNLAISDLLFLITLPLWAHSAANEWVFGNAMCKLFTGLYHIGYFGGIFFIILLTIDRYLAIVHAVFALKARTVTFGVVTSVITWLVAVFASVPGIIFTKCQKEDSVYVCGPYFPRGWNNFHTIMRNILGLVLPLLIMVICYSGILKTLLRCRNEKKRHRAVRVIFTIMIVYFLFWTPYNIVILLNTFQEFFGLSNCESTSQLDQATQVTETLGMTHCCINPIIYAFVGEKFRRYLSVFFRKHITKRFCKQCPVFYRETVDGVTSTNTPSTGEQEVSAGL

As for `CO[C@@H]1COCC[C@@H]1N[C@@H]1C[C@H]2CCC[C@@]2(C(=O)N2C[C@@H]3C[C@H]2CN3c2nccc(C(F)(F)F)c2C)C1` (racemic) [Example 38, 1,5-anhydro-2,3-dideoxy-4-O-methyl-3-{[(2R,3aR,6aR)-3a-({(1S,4S)-5-[3-methyl-4-(trifluoromethyl)pyridin-2-yl]-2,5-diazabicyclo[2.2.1]hept-2-yl}carbonyl)octahydropentalen-2-yl]amino}-D-erythro-pentitol], the IC50 on human CCR2B (calcium flux, human MCP-1 2 nM) was determined as 1600 nM. The values for the Kb on human CCR2B and on rat CCR2 were 394 nM and 317 nM, respectively.

`CO[C@@H]1COCC[C@H]1N[C@@H]1C[C@H]2CCC[C@@]2(C(=O)N2C[C@@H]3C[C@H]2CN3c2cc(C(F)(F)F)cnn2)C1` (stereo in doubt) [Example 6]: the Kb at rat CCR2 came to 29 nM.

In the case of `CN(C1CCOCC1)C1CC2CCCC2(C(=O)N2CCN(c3ccc(C(F)(F)F)cc3)CC2)C1` (centres unmarked) [Compound A, reference compound], the concentration for half-maximal inhibition (IC50) on human CCR2B (calcium flux, human MCP-1 2 nM) was more than 50000 nM.

As to `O=C(N1CCN(c2ccc(C(F)(F)F)cc2)CC1)C12CCCC1CC(N1CCC(c3ccccc3)CC1)C2` (centres unmarked) [Compound B, reference compound], the half-maximal inhibitory concentration (IC50) on human CCR2B (calcium flux, human MCP-1 2 nM) stood at 28000 nM.

Consider `CO[C@@H]1COCC[C@@H]1N[C@@H]1C[C@H]2CCC[C@@]2(C(=O)N2C[C@H]3C[C@@H]2CN3c2cc(C(F)(F)F)ccn2)C1` [Example 3, 1,5-anhydro-2,3-dideoxy-4-O-methyl-3-{[(2R,3aR,6aR)-3a-({(1R,4R)-5-[4-(trifluoromethyl)pyridin-2-yl]-2,5-diazabicyclo[2.2.1]hept-2-yl}carbonyl)octahydropentalen-2-yl]amino}-D-erythro-pentitol], for which, at human CCR2B (calcium flux, human MCP-1 2 nM), the IC50 came out at 2500 nM. Also, the Kb at human CCR2B stood at 614 nM; on rat CCR2, 694 nM.

For `CO[C@@H]1COCC[C@H]1N[C@@H]1C[C@H]2CCC[C@@]2(C(=O)N2C[C@H]3C[C@@H]2CN3c2cc(C(F)(F)F)ccn2)C1` [Example 4, 1,5-anhydro-2,3-dideoxy-4-O-methyl-3-{[(2R,3aR,6aR)-3a-({(1R,4R)-5-[4-(trifluoromethyl)pyridin-2-yl]-2,5-diazabicyclo[2.2.1]hept-2-yl}carbonyl)octahydropentalen-2-yl]amino}-D-threo-pentitol], on human CCR2B (calcium flux, human MCP-1 2 nM), the half-inhibitory concentration (IC50) came to 25000 nM. Besides, the Kb at human CCR2B was more than 6140 nM; at rat CCR2, more than 6940 nM.

As for `CO[C@@H]1COCC[C@@H]1N[C@@H]1C[C@H]2CCC[C@@]2(C(=O)N2C[C@@H]3C[C@H]2CN3c2cc(C(F)(F)F)cnn2)C1` [Example 5, 1,5-anhydro-2,3-dideoxy-4-O-methyl-3-{[(2R,3aR,6aR)-3a-({(1S,4S)-5-[5-(trifluoromethyl)pyridazin-3-yl]-2,5-diazabicyclo[2.2.1]hept-2-yl}carbonyl)octahydropentalen-2-yl]amino}-D-erythro-pentitol], the Kb on rat CCR2 came out at 7 nM.

On to `CO[C@@H]1COCC[C@@H]1N[C@@H]1C[C@H]2CCC[C@@]2(C(=O)N2[C@@H]3CC[C@H]2CN(c2cc(C(F)(F)F)ccn2)C3)C1` [Example 8, 1,5-anhydro-2,3-dideoxy-4-O-methyl-3-{[(2R,3aR,6aR)-3a-({(1R,5S)-3-[4-(trifluoromethyl)pyridin-2-yl]-3,8-diazabicyclo[3.2.1]oct-8-yl}carbonyl)octahydropentalen-2-yl]amino}-D-erythro-pentitol], for which the 50% inhibitory concentration (IC50) on human CCR2B (calcium flux, human MCP-1 2 nM) came out at 14400 nM. The Kb at human CCR2B was more than 3550 nM; at rat CCR2, more than 6940 nM.

Take `O=C(O)c1cccc(C2CCN([C@H]3C[C@H]4CCC[C@@]4(C(=O)N4C[C@@H]5C[C@H]4CN5c4cc(C(F)(F)F)ccn4)C3)CC2)c1` [Example 9, 3-{1-[(2S,3aR,6aR)-3a-({(1S,4S)-5-[4-(trifluoromethyl)pyridin-2-yl]-2,5-diazabicyclo[2.2.1]hept-2-yl}carbonyl)octahydropentalen-2-yl]piperidin-4-yl}benzoic acid]: on human CCR2B, the 50% inhibitory concentration (IC50) is 470 nM and the Kb was found to be 116 nM. For the same molecule, on rat CCR2, the Kb is 22 nM.

On to `O=C(O)c1cccc(C2CCN([C@@H]3C[C@H]4CCC[C@@]4(C(=O)N4C[C@@H]5C[C@H]4CN5c4cc(C(F)(F)F)ccn4)C3)CC2)c1` [Example 10, 3-{1-[(2R,3aR,6aR)-3a-({(1S,4S)-5-[4-(trifluoromethyl)pyridin-2-yl]-2,5-diazabicyclo[2.2.1]hept-2-yl}carbonyl)octahydropentalen-2-yl]piperidin-4-yl}benzoic acid], for which the IC50 on human CCR2B (calcium flux, human MCP-1 2 nM) was determined as 1600 nM. Moreover, the Kb at human CCR2B was 394 nM; on rat CCR2, 38 nM.

Take `CO[C@@H]1COCC[C@@H]1N[C@@H]1C[C@H]2CCC[C@@]2(C(=O)N2C[C@@H]3C[C@H]2CN3c2cc(C(F)(F)F)cc(C)n2)C1` [Example 11, 1,5-anhydro-2,3-dideoxy-4-O-methyl-3-{[(2R,3aR,6aR)-3a-({(1S,4S)-5-[6-methyl-4-(trifluoromethyl)pyridin-2-yl]-2,5-diazabicyclo[2.2.1]hept-2-yl}carbonyl)octahydropentalen-2-yl]amino}-D-erythro-pentitol]: at rat CCR2, the Kb stood at 74 nM.

As for `CO[C@@H]1COCC[C@@H]1N[C@@H]1C[C@H]2CCC[C@@]2(C(=O)N2C[C@@H]3C[C@H]2CN3c2cccc(C(F)(F)F)c2F)C1` [Example 17, 1,5-anhydro-2,3-dideoxy-3-{[(2R,3aR,6aR)-3a-({(1S,4S)-5-[2-fluoro-3-(trifluoromethyl)phenyl]-2,5-diazabicyclo[2.2.1]hept-2-yl}carbonyl)octahydropentalen-2-yl]amino}-4-O-methyl-D-erythro-pentitol], on human CCR2B (calcium flux, human MCP-1 2 nM), the IC50 was 1290 nM. The Kb at human CCR2B was found to be 316 nM; on rat CCR2, 160 nM.

Consider `CO[C@@H]1COCC[C@@H]1N[C@@H]1C[C@H]2CCC[C@@]2(C(=O)N2C[C@@H]3C[C@H]2CN3c2nccc(C(F)(F)F)c2F)C1` [Example 21, 1,5-anhydro-2,3-dideoxy-3-{[(2R,3aR,6aR)-3a-({(1S,4S)-5-[3-fluoro-4-(trifluoromethyl)pyridin-2-yl]-2,5-diazabicyclo[2.2.1]hept-2-yl}carbonyl)octahydropentalen-2-yl]amino}-4-O-methyl-D-erythro-pentitol], for which the 50% inhibitory concentration (IC50) on human CCR2B (calcium flux, human MCP-1 2 nM) was 821 nM. The Kb at human CCR2B turned out to be 201 nM; at rat CCR2 it was 91 nM.

As to `CO[C@@H]1COCC[C@@H]1N[C@@H]1C[C@H]2CCC[C@@]2(C(=O)N2C[C@@H]3C[C@H]2CN3c2cccc(C(F)(F)F)c2C)C1` [Example 23, 1,5-anhydro-2,3-dideoxy-4-O-methyl-3-{[(2R,3aR,6aR)-3a-({(1S,4S)-5-[2-methyl-3-(trifluoromethyl)phenyl]-2,5-diazabicyclo[2.2.1]hept-2-yl}carbonyl)octahydropentalen-2-yl]amino}-D-erythro-pentitol], the IC50 on human CCR2B (calcium flux, human MCP-1 2 nM) worked out at 1110 nM. In addition, the Kb came to 272 nM on human CCR2B and 158 nM on rat CCR2.

With `CO[C@@H]1COCC[C@@H]1N[C@@H]1C[C@H]2CCC[C@@]2(C(=O)N2C[C@@H]3C[C@H]2CN3c2cc(C)cc(C(F)(F)F)c2)C1` [Example 24, 1,5-anhydro-2,3-dideoxy-4-O-methyl-3-{[(2R,3aR,6aR)-3a-({(1S,4S)-5-[3-methyl-5-(trifluoromethyl)phenyl]-2,5-diazabicyclo[2.2.1]hept-2-yl}carbonyl)octahydropentalen-2-yl]amino}-D-erythro-pentitol], the IC50 at human CCR2B (calcium flux, human MCP-1 2 nM) came to 1390 nM. For the same molecule, the Kb on human CCR2B was 341 nM; at rat CCR2, 116 nM.

`COc1ccc(N2C[C@@H]3C[C@H]2CN3C(=O)[C@@]23CCC[C@@H]2C[C@@H](N[C@H]2CCOC[C@H]2OC)C3)cc1C(F)(F)F` [Example 31, 1,5-anhydro-2,3-dideoxy-3-{[(2R,3aR,6aR)-3a-({(1S,4S)-5-[4-methoxy-3-(trifluoromethyl)phenyl]-2,5-diazabicyclo[2.2.1]hept-2-yl}carbonyl)octahydropentalen-2-yl]amino}-4-O-methyl-D-erythro-pentitol]: the half-inhibitory concentration (IC50) at human CCR2B (calcium flux, human MCP-1 2 nM) came out at 1020 nM. Further, the results for the Kb on human CCR2B and at rat CCR2 were 250 nM and 22 nM, respectively.

Consider `CO[C@@H]1COCC[C@@H]1N[C@@H]1C[C@H]2CCC[C@@]2(C(=O)N2C[C@@H]3C[C@H]2CN3c2ncccc2C(F)(F)F)C1` [Example 33, 1,5-anhydro-2,3-dideoxy-4-O-methyl-3-{[(2R,3aR,6aR)-3a-({(1S,4S)-5-[3-(trifluoromethyl)pyridin-2-yl]-2,5-diazabicyclo[2.2.1]hept-2-yl}carbonyl)octahydropentalen-2-yl]amino}-D-erythro-pentitol], for which, on human CCR2B, the half-inhibitory concentration (IC50) was determined as 25000 nM. The Kb at human CCR2B is more than 6140 nM; on rat CCR2 it was more than 1330 nM.
